Data: US9708314B2, “Heterocyclic amide compound” (NISSAN CHEMICAL INDUSTRIES, LTD., priority 2013, dated 2017)

Tests used:
Type in all cases: in vivo
[1] = system: Echinochloa oryzacola Vasing.; assay: Test Example 2: herbicidal activity, application during weed generation in submerged conditions; settings: Eighteenth Table; application herbicide amount 320 g/ha
In short: (§1)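 Post-emergence application under submerged conditions: water-diluted emulsion dosed onto the water surface (g/ha) when weeds reach one- to two-leaf stage. Soil flooded to 4 cm; greenhouse 25–30 °C. Herbicidal ratio graded in six classes, 0 (≤5%) to 5 (≥90%), at three weeks.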

Monochoria vaginalis = assay: as above; settings: Eighteenth Table; application herbicide amount 320 g/ha
In short: as §1

Scirpus juncoides = assay: as above; settings: Eighteenth Table; application herbicide amount 320 g/ha
In short: as §1

Abutilon theophrasti = assay: Test Example 4: herbicidal effect by application to foliage (diluvial soil, plastic box); settings: for M (Abutilon theophrasti) herbicidal effect: application to foliage, application herbicide amount 320 g/ha
In short: (§2)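 Emulsion-formulated compound, diluted to a predetermined g/ha dose, applied by small sprayer to leaves and stems of 14-day-old seedlings grown in sterilized diluvial soil. Effect rated on 0–5 herbicidal-ratio scale three weeks on.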

Alopecurus myosuroides = assay: as above; settings: for J (Alopecurus myosuroides) herbicidal effect: application to foliage, application herbicide amount 320 g/ha
In short: as §2

Apera spica-venti. = assay: as above; settings: for L (Apera spica-venti.) herbicidal effect: application to foliage, application herbicide amount 320 g/ha
In short: as §2

Avena fatua = assay: as above; settings: for I (Avena fatua) herbicidal effect: application to foliage, application herbicide amount 320 g/ha
In short: as §2

Chenopodium album = assay: as above; settings: for O (Chenopodium album) herbicidal effect: application to foliage, application herbicide amount 320 g/ha
In short: as §2

Digitaria ciliaris = assay: as above; settings: for F (Digitaria ciliaris) herbicidal effect: application to foliage, application herbicide amount 320 g/ha
In short: as §2

[2] = system: Echinochloa crus-galli var. crus-galli; assay: as above; settings: for H (Echinochloa crus-galli var. crus-galli) herbicidal effect: application to foliage, application herbicide amount 320 g/ha
In short: as §2

Galium spurium = assay: as above; settings: for Q (Galium spurium) herbicidal effect: application to foliage, application herbicide amount 320 g/ha
In short: as §2

Lolium multiflorum Lam. = assay: as above; settings: for K (Lolium multiflorum Lam.) herbicidal effect: application to foliage, application herbicide amount 320 g/ha
In short: as §2

Setaria viridis = assay: as above; settings: for G (Setaria viridis) herbicidal effect: application to foliage, application herbicide amount 320 g/ha
In short: as §2

Veronica persica = assay: as above; settings: for R (Veronica persica) herbicidal effect: application to foliage, application herbicide amount 320 g/ha
In short: as §2

[3] = system: Beta vulgaris ssp. vulgaris; assay: Test Example 4: effect on crop by application to foliage (diluvial soil, plastic box); settings: for f (Beta vulgaris ssp. vulgaris) effect on crop: application to foliage, application herbicide amount 320 g/ha
In short: as §2

Brassica campestris L. = assay: as above; settings: for g (Brassica campestris L.) effect on crop: application to foliage, application herbicide amount 320 g/ha
In short: as §2

Glycine max = assay: as above; settings: for c (Glycine max) effect on crop: application to foliage, application herbicide amount 320 g/ha
In short: as §2

Triticum aestivum = assay: as above; settings: for e (Triticum aestivum) effect on crop: application to foliage, application herbicide amount 320 g/ha
In short: as §2

Zea mays = assay: as above; settings: for b (Zea mays) effect on crop: application to foliage, application herbicide amount 320 g/ha
In short: as §2

[4] = system: directly sowed Oryza sativa; assay: as above; settings: for d (directly sowed Oryza sativa) effect on crop: application to foliage, application herbicide amount 320 g/ha
In short: as §2

[5] = Application herbicide amount 320 g/ha
[6] = Application herbicide amount 320 g/ha, effect on crop

**Q.** How did the “A (Echinochloa oryzicola Vasing.) herbicidal ratio grade” value [1] turn out when `Cc1nnc(NC(=O)c2ccc(C(F)(F)F)n3c(NC(C)C)nnc23)o1` [1-090] was run?
**A.** Its value is 2 (Herbicidal ratio of 20% or more and less than 40%).

**Q.** And the “C (Monochoria vaginalis) herbicidal ratio grade” value (Monochoria vaginalis)?
**A.** The value was 3 (Herbicidal ratio of 40% or more and less than 70%).

**Q.** What about the “B (Scirpus juncoides) herbicidal ratio grade” value (Scirpus juncoides) of the same compound?
**A.** Its value is 1 (Herbicidal ratio of 5% or more and less than 20%).

**Q.** And the M (Abutilon theophrasti; [5])?
**A.** Its M is 3 (Herbicidal ratio of 40% or more and less than 70%).

**Q.** And the J (Alopecurus myosuroides; [5])?
**A.** Its J is 1 (Herbicidal ratio of 5% or more and less than 20%).

**Q.** And the L (Apera spica-venti.; [5])?
**A.** The L was 1 (Herbicidal ratio of 5% or more and less than 20%).

**Q.** And the I (Avena fatua; [5])?
**A.** Its I is 3 (Herbicidal ratio of 40% or more and less than 70%).

**Q.** What about the O (Chenopodium album; [5]) of the same compound?
**A.** Its O is 5 (Herbicidal ratio of 90% or more (almost completely withered)).

**Q.** What about the F (Digitaria ciliaris; [5]) of the same compound?
**A.** Its F is 5 (Herbicidal ratio of 90% or more (almost completely withered)).

**Q.** And the H [2, 5]?
**A.** Its H is 5 (Herbicidal ratio of 90% or more (almost completely withered)).

**Q.** What about the Q (Galium spurium; [5]) of the same compound?
**A.** Its Q is 1 (Herbicidal ratio of 5% or more and less than 20%).

**Q.** What about the K (Lolium multiflorum Lam.; [5]) of the same compound?
**A.** The K was 1 (Herbicidal ratio of 5% or more and less than 20%).

**Q.** And the G (Setaria viridis; [5])?
**A.** Its G is 3 (Herbicidal ratio of 40% or more and less than 70%).

**Q.** And the R (Veronica persica; [5])?
**A.** Its R is 5 (Herbicidal ratio of 90% or more (almost completely withered)).

**Q.** What about the f [3, 6] of the same compound?
**A.** The f was 5 (Herbicidal ratio of 90% or more (almost completely withered)).

**Q.** What about the g (Brassica campestris L.; [6]) of the same compound?
**A.** Its g is 4 (Herbicidal ratio of 70% or more and less than 90%).

**Q.** What about the c (Glycine max; [6]) of the same compound?
**A.** The c was 1 (Herbicidal ratio of 5% or more and less than 20%).

**Q.** What about the e (Triticum aestivum; [6]) of the same compound?
**A.** The e was 0 (Herbicidal ratio of 5% or less (almost no effect)).

**Q.** What about the b (Zea mays; [6]) of the same compound?
**A.** Its b is 0 (Herbicidal ratio of 5% or less (almost no effect)).

**Q.** And the d [4, 6]?
**A.** Its d is 4 (Herbicidal ratio of 70% or more and less than 90%).

**Q.** What does the source list for `Cc1nnc(NC(=O)c2ccc(C(F)(F)F)n3c(C(C)C)nnc23)o1` [1-004, 3-Isopropyl-N-(5-methyl-1,3,4-oxadiazol-2-yl)-5-(trifluoromethyl)-[1,2,4]triazolo[4,3-a]pyridine-8-carboxamide]?
**A.** A (Echinochloa oryzicola Vasing.) herbicidal ratio grade [1]: 4 (Herbicidal ratio of 70% or more and less than 90%); C (Monochoria vaginalis) herbicidal ratio grade (Monochoria vaginalis): 4 (Herbicidal ratio of 70% or more and less than 90%); B (Scirpus juncoides) herbicidal ratio grade (Scirpus juncoides): 3 (Herbicidal ratio of 40% or more and less than 70%); M (Abutilon theophrasti) herbicidal effect (Abutilon theophrasti): 4 (Herbicidal ratio of 70% or more and less than 90%); J (Alopecurus myosuroides) herbicidal effect (Alopecurus myosuroides): 2 (Herbicidal ratio of 20% or more and less than 40%); L (Apera spica-venti.) herbicidal effect (Apera spica-venti.): 3 (Herbicidal ratio of 40% or more and less than 70%); I (Avena fatua) herbicidal effect (Avena fatua): 2 (Herbicidal ratio of 20% or more and less than 40%); O (Chenopodium album) herbicidal effect (Chenopodium album): 5 (Herbicidal ratio of 90% or more (almost completely withered)); F (Digitaria ciliaris) herbicidal effect (Digitaria ciliaris): 5 (Herbicidal ratio of 90% or more (almost completely withered)); H (Echinochloa crus-galli var. crus-galli) herbicidal effect [2]: 5 (Herbicidal ratio of 90% or more (almost completely withered)); Q (Galium spurium) herbicidal effect (Galium spurium): 1 (Herbicidal ratio of 5% or more and less than 20%); K (Lolium multiflorum Lam.) herbicidal effect (Lolium multiflorum Lam.): 2 (Herbicidal ratio of 20% or more and less than 40%); G (Setaria viridis) herbicidal effect (Setaria viridis): 4 (Herbicidal ratio of 70% or more and less than 90%); R (Veronica persica) herbicidal effect (Veronica persica): 4 (Herbicidal ratio of 70% or more and less than 90%); f (Beta vulgaris ssp. vulgaris) effect on crop [3]: 4 (Herbicidal ratio of 70% or more and less than 90%); g (Brassica campestris L.) effect on crop (Brassica campestris L.): 3 (Herbicidal ratio of 40% or more and less than 70%); c (Glycine max) effect on crop (Glycine max): 4 (Herbicidal ratio of 70% or more and less than 90%); e (Triticum aestivum) effect on crop (Triticum aestivum): 2 (Herbicidal ratio of 20% or more and less than 40%); b (Zea mays) effect on crop (Zea mays): 0 (Herbicidal ratio of 5% or less (almost no effect)); d (directly sowed Oryza sativa) effect on crop [4]: 4 (Herbicidal ratio of 70% or more and less than 90%)

**Q.** Which results are given for `Cc1nnc(NC(=O)c2ccc(C(F)(F)F)n3c(C4=NOC(C)(C)C4)nnc23)o1` [1-029]?
**A.** A (Echinochloa oryzicola Vasing.) herbicidal ratio grade [1]: 3 (Herbicidal ratio of 40% or more and less than 70%); C (Monochoria vaginalis) herbicidal ratio grade (Monochoria vaginalis): 3 (Herbicidal ratio of 40% or more and less than 70%); B (Scirpus juncoides) herbicidal ratio grade (Scirpus juncoides): 2 (Herbicidal ratio of 20% or more and less than 40%); M (Abutilon theophrasti) herbicidal effect (Abutilon theophrasti): 5 (Herbicidal ratio of 90% or more (almost completely withered)); J (Alopecurus myosuroides) herbicidal effect (Alopecurus myosuroides): 1 (Herbicidal ratio of 5% or more and less than 20%); L (Apera spica-venti.) herbicidal effect (Apera spica-venti.): 1 (Herbicidal ratio of 5% or more and less than 20%); I (Avena fatua) herbicidal effect (Avena fatua): 1 (Herbicidal ratio of 5% or more and less than 20%); O (Chenopodium album) herbicidal effect (Chenopodium album): 5 (Herbicidal ratio of 90% or more (almost completely withered)); F (Digitaria ciliaris) herbicidal effect (Digitaria ciliaris): 5 (Herbicidal ratio of 90% or more (almost completely withered)); H (Echinochloa crus-galli var. crus-galli) herbicidal effect [2]: 5 (Herbicidal ratio of 90% or more (almost completely withered)); Q (Galium spurium) herbicidal effect (Galium spurium): 0 (Herbicidal ratio of 5% or less (almost no effect)); K (Lolium multiflorum Lam.) herbicidal effect (Lolium multiflorum Lam.): 1 (Herbicidal ratio of 5% or more and less than 20%); G (Setaria viridis) herbicidal effect (Setaria viridis): 4 (Herbicidal ratio of 70% or more and less than 90%); R (Veronica persica) herbicidal effect (Veronica persica): 5 (Herbicidal ratio of 90% or more (almost completely withered)); f (Beta vulgaris ssp. vulgaris) effect on crop [3]: 5 (Herbicidal ratio of 90% or more (almost completely withered)); g (Brassica campestris L.) effect on crop (Brassica campestris L.): 1 (Herbicidal ratio of 5% or more and less than 20%); c (Glycine max) effect on crop (Glycine max): 1 (Herbicidal ratio of 5% or more and less than 20%); e (Triticum aestivum) effect on crop (Triticum aestivum): 1 (Herbicidal ratio of 5% or more and less than 20%); b (Zea mays) effect on crop (Zea mays): 3 (Herbicidal ratio of 40% or more and less than 70%); d (directly sowed Oryza sativa) effect on crop [4]: 3 (Herbicidal ratio of 40% or more and less than 70%)
